{"source": "patent US7547718B2", "about": "“Substituted imidazoles” (Pfizer Limited, priority 2006, dated 2009)"}
{"tested_on": "Rhipicephalus sanguineus (brown dog tick)", "assay": "In vitro tick assay (Rhip. Funct.)", "conditions": "unfed R. sanguineus in precoated glass vials; lowest dose at which all five ticks were seen moving; observed at 24, 48 and 72 hours", "excerpt": "Application of octopamine agonists to acarids for example, ticks, causes distinct behavioural changes compared to untreated control ticks. Treated ticks become agitated and move constantly, this prevents ticks attaching and feeding on a host animal to which the compound has been applied. Normal behaviour of ticks is to go into stasis when all other external stimuli are removed. Agitation and movement can be measured in vitro in the laboratory to predict efficacy and potency in vivo.\nThe assay was run using unfed Rhipicephalus sanguineus (brown dog tick) and precoated glass vials with an inner surface area of 34.5 cm^2. Each compound was tested in duplicate.\nCompound (345 μg) was dissolved in isopropyl alcohol (500 μl) and delivered to each vial. The vials were placed on a tilting roller in a fume hood for 2 hours to allow the isopropyl alcohol to evaporate giving a compound concentration for each vial of 10 μg/cm^2. Five R. sanguineus (male and female) were added to each coated vial and the vial sealed with a firm wad of cotton wool. Vials were then kept, undisturbed, on the bench at room temperature. Observation and recordings of activity were taken at 24, 48 and 72 hours after addition of ticks to the vials. The ED100 value was determined as the lowest dose at which all five ticks were seen moving around inside the vial."}
{"smiles": "Cc1cccc(C(C)c2nccn2COC(=O)CC(C)C)c1C", "note": "(centres unmarked) [Example 68, {2-[1-(2,3-Dimethylphenyl)ethyl]-1H-imidazol-1-yl}methyl 3-methyl butanoate]", "Rhip. Funct. ED100": "0.03 mg/cm^2"}
{"smiles": "Cc1cccc(C(C)c2nccn2COC(=O)OCCC(C)C)c1C", "note": "(centres unmarked) [Example 139, {2-[1-(2,3-Dimethylphenyl)ethyl]-1H-imidazol-1-yl}methyl 3-methyl butyl carbonate]", "Rhip. Funct. ED100": "<=0.03 mg/cm^2"}
{"smiles": "Cc1cccc(C(C)c2nccn2COC(=O)OC2CCC2)c1C", "note": "(centres unmarked) [Example 141, Cyclobutyl{2-[1-(2,3-dimethylphenyl)ethyl]-1H-imidazol-1-yl}methyl carbonate]", "Rhip. Funct. ED100": "0.03 mg/cm^2"}
{"smiles": "Cc1cccc(C(C)c2nccn2COC(=O)NCCc2ccc(Cl)cc2Cl)c1C", "note": "(centres unmarked) [Example 148, {2-[1-(2,3-Dimethylphenyl)ethyl]-1H-imidazol-1-yl}methyl[2-(2,4-dichlorophenyl)ethyl]carbamate]", "Rhip. Funct. ED100": ">1 mg/cm^2"}
{"smiles": "CCC(CC)COC(=O)n1ccnc1[C@@H](C)c1cccc(C)c1C", "note": "[Example 233, 2-Ethyl butyl 2-[(1S)-1-(2,3-dimethylphenyl)ethyl]-1H-imidazole-1-carboxylate]", "Rhip. Funct. ED100": "<=10 mg/cm^2"}
{"smiles": "CCC(C)C(C)COC(=O)n1ccnc1[C@@H](C)c1cccc(C)c1C", "note": "(stereo partly drawn) [Example 253, 2,3-Dimethyl pentyl 2-[(1S)-1-(2,3-dimethylphenyl)ethyl]-1H-imidazole-1-carboxylate]", "Rhip. Funct. ED100": "0.1 mg/cm^2"}
{"smiles": "Cc1cccc([C@H](C)c2nccn2C(=O)OCc2c(F)c(F)c(F)c(F)c2F)c1C", "note": "[Example 270, Pentafluorobenzyl 2-[(1S)-1-(2,3-dimethylphenyl)ethyl]-1H -imidazole-1-carboxylate]", "Rhip. Funct. ED100": "<=10 mg/cm^2"}
{"smiles": "Cc1cccc([C@H](C)c2nccn2C(=O)OCc2c(C)c(C)c(C)c(C)c2C)c1C", "note": "[Example 294, Pentamethylbenzyl 2-[(1S)-1-(2,3-dimethylphenyl)ethyl]-1H -imidazole-1-carboxylate]", "Rhip. Funct. ED100": ">0.03 mg/cm^2"}
